PubChem BioAssay (NCI)
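Where inhibition never reached the appropriate level, the endpoint shown equals the highest concentration tested. Otherwise, values were interpolated linearly from a five-concentration, 48-hour dose response in 96-well plates. Definition used: TGI = concentration required for complete inhibition of growth.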

How the values were obtained:
Assay in all cases: NCI-60 cell line screen, 48 h
[1] = system: CCRF-CEM leukemia
[2] = system: HCT-116 colon
[3] = system: HL-60(TB) leukemia
[4] = system: HT29 colon
[5] = system: IGROV1 ovarian
[6] = system: K-562 leukemia
[7] = system: NCI-H226 lung
[8] = system: RXF 393 renal
[9] = system: SK-MEL-5 melanoma
[10] = system: 786-0 renal

| SMILES | TGI [1] | TGI [2] | TGI [3] | TGI [4] | TGI [5] | TGI [6] | TGI [7] | TGI [8] | TGI [9] | TGI [10] |
| --- | --- | --- | --- | --- | --- | --- | --- | --- | --- | --- |
| C#CC[C@@]12CC(=O)C[C@@H]1CCC1(C2)OCCO1 (tested in a mixture with another compound) | > 100 µM | > 100 µM | > 100 µM | > 100 µM | > 100 µM | > 100 µM | > 100 µM | > 100 µM | > 100 µM | – |
| COc1cc(/C=C2\CC/C(=C\c3cc(OC)c(O)c(OC)c3)C2=O)cc(OC)c1O | 23.1 µM | > 23.2 µM | 8.62 µM | > 100 µM | 3.19 µM | 14.2 µM | > 33.3 µM | 3.74 µM | 5.57 µM | > 100 µM |
| COc1ccc(-n2c(=O)c3[nH]c(=S)[nH]c3n(-c3ccc(OC)cc3)c2=S)cc1 | > 100 µM | > 100 µM | > 100 µM | > 100 µM | > 100 µM | > 100 µM | > 100 µM | > 100 µM | > 100 µM | > 100 µM |
| O=C1c2cc(Cc3ccccc3)c(=O)c(Cc3ccccc3)cc2C(=O)c2cc(Cc3ccccc3)c(=O)c(Cc3ccccc3)cc21 | > 100 µM | > 100 µM | > 100 µM | > 100 µM | > 100 µM | > 100 µM | > 100 µM | > 100 µM | > 100 µM | > 100 µM |
| CC1CC[C@@]2(OC1)O[C@H]1[C@H](O)[C@H]3[C@@H]4CC[C@H]5C[C@@H](OC6OC(CO)C(OC7OC(CO)C(O)C(OC8OCC(O)C(O)C8O)C7OC7OC(CO)C(O)C(O)C7OC7OC(CO)C(O)C(O)C7O)C(O)C6O)[C@H](O)C[C@]5(C)[C@H]4CC[C@]3(C)[C@H]1[C@@H]2C (stereo not given in full) | 2.51 µM | > 10 µM | 3.08 µM | > 10 µM | > 10 µM | > 10 µM | > 10 µM | > 10 µM | > 10 µM | 9.37 µM |
| Cc1cc(C)c2c(c1)CC1(Cc3cc(C)c(C)cc3C1=O)C2=O (stereo not given) | > 100 µM | – | > 100 µM | – | > 100 µM | > 100 µM | > 100 µM | > 100 µM | > 100 µM | > 100 µM |
| CCOC(=O)C1CC(C(=O)c2ccccc2)N2c3ccccc3-c3ccccc3C12 (stereo not given) | > 100 µM | > 100 µM | 29.7 µM | > 100 µM | > 100 µM | > 100 µM | > 100 µM | > 100 µM | > 100 µM | > 100 µM |
| CSC(SC)=C(C#N)C(=O)Nc1cccc(Cl)c1 | > 100 µM | > 100 µM | 35.2 µM | > 100 µM | > 100 µM | > 100 µM | > 100 µM | > 100 µM | 40.7 µM | > 100 µM |
| COC(=O)c1ccccc1C1CN=NC12Cc1c(ccc3c1CCC3)C2=O (stereo not given) | > 100 µM | > 100 µM | 59.3 µM | > 100 µM | > 100 µM | > 100 µM | > 100 µM | > 100 µM | 58.6 µM | > 100 µM |
| CCCCc1ccc(Nc2ncc3ncn(COCCO)c3n2)cc1 | 60.6 µM | 65.4 µM | 50 µM | 50 µM | > 100 µM | 52.7 µM | > 100 µM | 86.6 µM | 49.6 µM | > 100 µM |
| O=c1[nH]nc(-c2ccccc2)n1/N=C/c1ccc([N+](=O)[O-])o1 | 19.6 µM | 5.55 µM | > 44.4 µM | > 48.7 µM | 16.9 µM | > 77.1 µM | 37.5 µM | 2.63 µM | 28.9 µM | > 31.7 µM |
| O=C1NC(=O)c2ccccc2/C1=C/c1ccc2c(c1)OCO2 | > 100 µM | 22.5 µM | > 100 µM | 44.8 µM | 60.9 µM | – | > 100 µM | 17.4 µM | 29.8 µM | > 100 µM |
| CCOC(=O)/C(C(N)=O)=C(\O)C(=O)/C(Br)=C(\O)c1ccccc1 | 3.54 µM | 32 µM | 0.248 µM | > 70.8 µM | 31.1 µM | 31.2 µM | 51.6 µM | 29.6 µM | 30.5 µM | 29.7 µM |
| COC(=O)C1=C(OC(=O)/C(=C/c2ccccc2)c2ccc(OC)cc2)C(C(=O)OC)[C@@]2(O)[C@@H](C(=O)OC)[C@H](C)C[C@@H]1[C@@H]2C(=O)OC (stereo not given in full) | > 100 µM | > 100 µM | > 100 µM | > 100 µM | > 100 µM | > 100 µM | > 100 µM | 64.7 µM | > 100 µM | > 100 µM |
| COc1ccc(C2C3=C(N=C4SC(C(C)=O)=C(C)N42)c2ccccc2CC3)cc1 (stereo not given) | > 100 µM | > 100 µM | 58 µM | > 100 µM | > 100 µM | – | > 100 µM | > 100 µM | > 100 µM | > 100 µM |
| CCn1c(=O)c2nc(SC)sc2n(-c2ccc(C)cc2)c1=O | > 100 µM | > 100 µM | > 100 µM | > 100 µM | > 100 µM | > 100 µM | > 100 µM | > 100 µM | > 100 µM | – |
| CN(Cc1cnc2nc(N)nc(N)c2n1)c1ccc(C(=O)NC23CC4CC(CC(C4)C2)C3)cc1 | 52 µM | > 100 µM | > 100 µM | – | 21.8 µM | 65.8 µM | 27.3 µM | 40.4 µM | 17.7 µM | 57.1 µM |
| CCOC(=O)c1ccc(Nc2nc3ccccc3nc2-c2cccs2)cc1 | > 100 µM | > 100 µM | > 100 µM | – | > 100 µM | > 100 µM | > 100 µM | > 100 µM | > 100 µM | > 100 µM |
| COc1ccccc1OCC(COC(=O)Nc1ccccc1)OC(=O)Nc1ccccc1 (stereo not given) | > 100 µM | > 100 µM | > 100 µM | > 100 µM | > 100 µM | > 100 µM | > 100 µM | 46.8 µM | > 100 µM | – |
| Cc1nc2cc(F)c(F)cc2[nH]c1=O | > 100 µM | > 100 µM | > 100 µM | > 100 µM | – | > 100 µM | > 100 µM | > 100 µM | > 100 µM | > 100 µM |
